# Laboratory results reported in ChEMBL document CHEMBL2203135, “Novel progesterone receptor modulators: 4-aryl-phenylsulfonamides” (Bioorg Med Chem Lett, 2012).
# What was measured:
# Progesterone receptor = biological target: T1, Progesterone receptor (Homo sapiens, UniProt P06401); assay: Antagonist activity against progesterone receptor in human T47D cells by alkaline phosphatase assay; type: functional, cell-based
# T1 sequence (P06401 whole entry): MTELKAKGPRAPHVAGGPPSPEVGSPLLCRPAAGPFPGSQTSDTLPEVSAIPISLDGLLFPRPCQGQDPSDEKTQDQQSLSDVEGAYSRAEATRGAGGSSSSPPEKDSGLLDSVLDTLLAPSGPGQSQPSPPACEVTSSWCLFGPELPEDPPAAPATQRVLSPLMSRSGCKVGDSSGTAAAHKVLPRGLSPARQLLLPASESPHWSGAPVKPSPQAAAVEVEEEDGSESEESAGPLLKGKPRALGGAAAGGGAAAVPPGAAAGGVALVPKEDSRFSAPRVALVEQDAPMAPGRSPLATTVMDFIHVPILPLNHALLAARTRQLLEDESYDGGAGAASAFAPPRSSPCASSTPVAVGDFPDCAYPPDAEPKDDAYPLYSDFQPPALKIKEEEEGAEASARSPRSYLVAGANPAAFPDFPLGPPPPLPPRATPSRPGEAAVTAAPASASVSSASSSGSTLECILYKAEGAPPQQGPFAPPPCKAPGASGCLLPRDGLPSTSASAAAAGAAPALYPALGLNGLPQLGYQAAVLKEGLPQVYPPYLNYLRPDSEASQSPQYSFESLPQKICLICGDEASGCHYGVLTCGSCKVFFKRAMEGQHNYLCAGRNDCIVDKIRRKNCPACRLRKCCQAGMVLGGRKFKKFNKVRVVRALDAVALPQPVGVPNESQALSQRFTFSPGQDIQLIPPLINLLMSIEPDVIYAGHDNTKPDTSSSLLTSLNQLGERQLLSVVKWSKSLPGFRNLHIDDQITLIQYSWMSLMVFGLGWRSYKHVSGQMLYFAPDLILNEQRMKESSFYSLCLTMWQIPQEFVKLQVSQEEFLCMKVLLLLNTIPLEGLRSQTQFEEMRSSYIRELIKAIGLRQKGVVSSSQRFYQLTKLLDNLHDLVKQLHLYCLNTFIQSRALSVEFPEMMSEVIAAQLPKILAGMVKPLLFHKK
# Salmonella typhimurium [1] = assay: Mutagenicity in Salmonella typhimurium in presence of liver S9 fraction by non-GLP Ames test; type: toxicity, organism-based; details: salmonella enterica subsp. enterica serovar typhimurium
# Salmonella typhimurium [2] = assay: Mutagenicity in Salmonella typhimurium in absence of liver S9 fraction by non-GLP Ames test; type: toxicity, organism-based; details: salmonella enterica subsp. enterica serovar typhimurium
# [3] = Half life in rat at 20 mg/kg, po administered as single dose; type: ADME, organism-based; design: dose 20 mg/kg, route oral; details: in vivo
# [4] = Cmax in rat at 20 mg/kg, po administered as single dose; type: ADME, organism-based; design: dose 20 mg/kg, route oral; details: in vivo
# [5] = AUC (0 to infinity) in rat at 20 mg/kg, po administered as single dose; type: ADME, organism-based; design: time infinity, dose 20 mg/kg, route oral; details: plasma
# [6] = biological target: T2, Progesterone receptor (Homo sapiens) (UniProt P06401); assay: Antagonist activity against progesterone receptor in human T47D cells at 3 uM by alkaline phosphatase assay; type: functional, cell-based
# T2 sequence (whole entry): T1 sequence (P06401 whole entry)
Compound,IC50 (Progesterone receptor) [nM],Activity (Salmonella typhimurium [1]),also measured
CCS(=O)(=O)Nc1cc(F)c(-c2ccc(C#N)n2C)cc1F,57,,
Cn1c(C#N)ccc1-c1ccc(NS(C)(=O)=O)c(C#N)c1,> 3000,,
Cn1c(C#N)ccc1-c1ccc(NS(C)(=O)=O)cc1F,8,Non-toxic,Activity (Salmonella typhimurium [2]): Non-toxic
CCS(=O)(=O)Nc1ccc(-c2ccc(C#N)n2C)c(F)c1,6,,
Cn1c(C#N)ccc1-c1ccc(N)cc1,,Toxic,half-life [3]: 2.5 h; Cmax [4]: 3.2 µM; AUC(0-inf) [5]: 3080 ng·h/mL
CC(C)c1ccc(S(=O)(=O)Nc2ccc(-c3ccc(C#N)n3C)cc2)cc1,,,inhibition [6]: 54%
CCS(=O)(=O)Nc1ccc(-c2ccc(C#N)n2C)cc1,9,Toxic,half-life [3]: 2.5 h; Cmax [4]: 6.7 µM; Activity (Salmonella typhimurium [2]): Non-toxic; AUC(0-inf) [5]: 12300 ng·h/mL
Cn1c(C#N)ccc1-c1ccc(NS(C)(=O)=O)cc1,8,,
CCCS(=O)(=O)Nc1ccc(-c2ccc(C#N)n2C)cc1,10,,
Cc1ccc(S(=O)(=O)Nc2ccc(-c3ccc(C#N)n3C)cc2)cc1,,,inhibition [6]: 55%
CCS(=O)(=O)Nc1ccc(-c2ccc(C#N)n2C)c(C#N)c1,128,,
CCS(=O)(=O)Nc1ccc(-c2ccc(C#N)n2C)c(C(F)(F)F)c1,12,Non-toxic,
CC(=O)Nc1ccc(-c2ccc(C#N)n2C)cc1,75,,half-life [3]: 5 h; Cmax [4]: 0.7 µM; AUC(0-inf) [5]: 1640 ng·h/mL
